The structures appear in SMILES notation. Calls of active or inactive are those of the source. No cut-off for these calls is given here.

The values that follow come from ChEMBL document CHEMBL3046039, “In vivo antidiabetic activity and in silico studies on adenosine monophosphate-activated protein kinase (AMPK) of (2E,5E)-2,5-bis(4-hydroxy-3-methoxybenzylidene) cyclopentanone” (2013).

The subject of assay [1] is Rattus norvegicus. Briefly: In vivo antidiabetic activity in streptozotocin-induced diabetic Wistar Rattus norvegicus (rat) assessed as serum triglyceride level at 25 mg/kg, po for 7 days by spectrophotometric analysis (reference value: 128.77 +/-6.3 mg/dl). The class given is functional.
For assay [2], the system named is Rattus norvegicus. The assay is described as follows: Increase in glucose tolerance in fasted normoglycemic Wistar Rattus norvegicus (rat) assessed as suppression of blood glucose AUC at 25 mg/kg, po measured at 30-120 min post-glucose challenge by oral glucose tolerance test. Also on record: dose 25 mg/kg. The assay is classed as functional, organism-based.
Assay [3] concerns Rattus norvegicus. The assay is described as follows: In vivo antidiabetic activity in streptozotocin-induced diabetic Wistar Rattus norvegicus (rat) assessed as serum total cholesterol level at 25 mg/kg, po for 7 days by spectrophotometric analysis (reference value: 126.62 +/-4.7 mg/dl). The assay is classed as functional.
Assay [4] concerns Rattus norvegicus. Briefly: Increase in sucrose tolerance in fasted normoglycemic Wistar Rattus norvegicus (rat) assessed as reduction in serum glucose level at 25 mg/kg, po measured at 30-120 min post-sucrose challenge by oral sucrose tolerance test. The class given is functional, organism-based. Details: dose 25 mg/kg.
Assay [5] concerns Rattus norvegicus. Briefly: In vivo antidiabetic activity in streptozotocin-induced diabetic Wistar Rattus norvegicus (rat) assessed as reduction in serum glucose level at 25 mg/kg, po for 7 days measured at 30 to 120 min post-glucose challenge by oral glucose tolerance test. The class given is functional, organism-based. Also on record: dose 25 mg/kg.
Assay [6] has as its system Rattus norvegicus. The assay is described as follows: In vivo antidiabetic activity in streptozotocin-induced diabetic Wistar Rattus norvegicus (rat) assessed as reduction in serum glucose level at 25 mg/kg, po measured after 2 to 4 hr by glucose oxidase method. The assay is classed as functional, organism-based. Details: dose 25 mg/kg.
The test system of assay [7] is Rattus norvegicus. The assay is described as follows: In vivo antidiabetic activity in streptozotocin-induced diabetic Wistar Rattus norvegicus (rat) assessed as serum LDL-cholesterol level at 25 mg/kg, po for 7 days by spectrophotometric analysis (reference value: 80.75 +/-3.4 mg/dl). The assay is classed as functional.
Assay [8] concerns Rattus norvegicus. Briefly: In vivo antidiabetic activity in streptozotocin-induced diabetic Wistar Rattus norvegicus (rat) assessed as serum HDL-cholesterol level at 25 mg/kg, po for 7 days by spectrophotometric analysis (reference value: 17.52 +/-2.1 mg/dl). The class given is functional.
Assay [9] has as its system Rattus norvegicus. The assay is described as follows: In vivo antidiabetic activity in streptozotocin-induced diabetic Wistar Rattus norvegicus (rat) assessed as serum VLDL-cholesterol level at 25 mg/kg, po for 7 days by spectrophotometric analysis (reference value: 28.12 +/-1.5 mg/dl). The class given is functional.
Assay [10] deals with Rattus norvegicus. The assay is described as follows: In vivo antidiabetic activity in streptozotocin-induced diabetic Wistar Rattus norvegicus (rat) assessed as reduction in serum glucose level at 10 mg/kg, po measured after 4 hr by glucose oxidase method. Also on record: dose 10 mg/kg. The class given is functional, organism-based.
The subject of assay [11] is Rattus norvegicus. The assay is described as follows: In vivo antidiabetic activity in streptozotocin-induced diabetic Wistar Rattus norvegicus (rat) assessed as serum triglyceride level at 0.5 mg/kg, po for 7 days by spectrophotometric analysis (reference value: 128.77 +/-6.3 mg/dl). The class given is functional.
Assay [12] deals with Rattus norvegicus. Briefly: In vivo antidiabetic activity in streptozotocin-induced diabetic Wistar Rattus norvegicus (rat) assessed as reduction in serum glucose level at 0.5 mg/kg, po for 7 days measured at 30 to 120 min post-glucose challenge by oral glucose tolerance test. The assay is classed as functional, organism-based. Also on record: dose 0.5 mg/kg.
Assay [13] relates to Rattus norvegicus. Briefly: Increase in glucose tolerance in fasted normoglycemic Wistar Rattus norvegicus (rat) assessed as suppression of blood glucose AUC at 10 mg/kg, po measured at 30-120 min post-glucose challenge by oral glucose tolerance test. The class given is functional, organism-based. Also on record: dose 10 mg/kg.
Assay [14] has as its system Rattus norvegicus. The assay is described as follows: In vivo antidiabetic activity in streptozotocin-induced diabetic Wistar Rattus norvegicus (rat) assessed as serum LDL-cholesterol level at 0.5 mg/kg, po for 7 days by spectrophotometric analysis (reference value: 80.75 +/-3.4 mg/dl). The class given is functional.
Assay [15] concerns Rattus norvegicus. Briefly: In vivo antidiabetic activity in streptozotocin-induced diabetic Wistar Rattus norvegicus (rat) assessed as serum total cholesterol level at 0.5 mg/kg, po for 7 days by spectrophotometric analysis (reference value: 126.62 +/-4.7 mg/dl). The class given is functional.
Assay [16] concerns Rattus norvegicus. The assay is described as follows: In vivo antidiabetic activity in streptozotocin-induced diabetic Wistar Rattus norvegicus (rat) assessed as serum HDL-cholesterol level at 0.5 mg/kg, po for 7 days by spectrophotometric analysis (reference value: 17.52 +/-2.1 mg/dl). The assay is classed as functional.
Assay [17] concerns Rattus norvegicus. The assay is described as follows: In vivo antidiabetic activity in streptozotocin-induced diabetic Wistar Rattus norvegicus (rat) assessed as serum VLDL-cholesterol level at 0.5 mg/kg, po for 7 days by spectrophotometric analysis (reference value: 28.12 +/-1.5 mg/dl). The assay is classed as functional.
The subject of assay [18] is Rattus norvegicus. The assay is described as follows: Increase in sucrose tolerance in fasted normoglycemic Wistar Rattus norvegicus (rat) assessed as reduction in serum glucose level at 7 mg/kg, po measured at 30-120 min post-sucrose challenge by oral sucrose tolerance test. Also on record: dose 7 mg/kg. The assay is classed as functional, organism-based.

Turning to `COc1cc(/C=C2\CC/C(=C\c3ccc(O)c(OC)c3)C2=O)ccc1O`, the Activity with Rattus norvegicus [1] amounted to 81.9 mg/dL; in the assay with Rattus norvegicus [3], 80.41 mg/dL; in the assay with Rattus norvegicus [7], 25.4 mg/dL; in the assay on Rattus norvegicus [8], 26.03 mg/dL; in the assay on Rattus norvegicus [9], 20.98 mg/dL. Further, the outcome in the assay on Rattus norvegicus [2] and in the assay on Rattus norvegicus [4] was Active. The inhibition entry in the assay with Rattus norvegicus [5] and in the assay on Rattus norvegicus [6] was “Active” in each case.

`COc1ccc(Cl)cc1C(=O)NCCc1ccc(S(=O)(=O)NC(=O)NC2CCCCC2)cc1` [GLYBURIDE]: the inhibition entry in the assay on Rattus norvegicus [10] and in the assay with Rattus norvegicus [12] was “Active” throughout. Moreover, the Activity in the assay on Rattus norvegicus [11] came out at 87.4 mg/dL; with Rattus norvegicus [14], 39.5 mg/dL; in the assay on Rattus norvegicus [15], 81.9 mg/dL; with Rattus norvegicus [16], 27.3 mg/dL; in the assay with Rattus norvegicus [17], 19.4 mg/dL. For the same molecule, the result in the assay on Rattus norvegicus [13] was Active.

As to `C[C@H]1O[C@H](O[C@H]2[C@H](O)[C@@H](O)[C@@H](O[C@H]3[C@H](O)[C@@H](O)C(O)O[C@@H]3CO)O[C@@H]2CO)[C@H](O)[C@@H](O)[C@@H]1N[C@H]1C=C(CO)[C@@H](O)[C@H](O)[C@H]1O` (stereo partly drawn), the outcome with Rattus norvegicus [18] was Active.
